Test results taken from US6518260B1, “(α-aminophosphino) peptide derivatives, method for making same and therapeutic applications thereof” (Institut National de la Sante et de la Recherche Medicale …, priority 1996, dated 2003).

Q: For `NC(Cc1ccccc1)P(=O)(O)CC(Cc1ccccc1)C(=O)N[C@@H](Cc1ccccc1)C(=O)OCc1ccccc1.O=C(O)C(F)(F)F` (stereo partly shown), which melting point is on record?
A: 210 °C

Q: With `NC(Cc1ccccc1)P(=O)(CC(Cc1ccccc1)C(=O)N[C@@H](Cc1ccccc1)C(=O)OCc1ccccc1)OCc1ccccc1.O=CO` (stereo partly shown) as the molecule, how does the melting point read?
A: 192 °C

Q: With `CC(N)P(=O)(O)CC(Cc1ccc(-c2ccccc2)cc1)C(=O)N[C@@H](C)C(=O)OCc1ccccc1.O=C(O)C(F)(F)F` (stereo partly shown) as the molecule, how does the melting point read?
A: 205 °C

Q: For `Br.NC(Cc1ccccc1)P(=O)(O)CC(Cc1ccccc1)C(=O)N[C@H](CC(=O)O)Cc1ccccc1` (stereo partly shown), which melting point is on record?
A: 240 °C
